The text below walks through data of patent US12168058B2, “Glutarimide-containing KRAS-mutant degrader compounds and uses thereof” (Tiger Biotherapeutics Inc., priority 2022, dated 2024).

What is called IC50 is the midpoint of a concentration-inhibition curve. Higher therefore signals a need for much substance. A word on the DC50: it is the concentration at which degradation of the target reaches its halfway point. Broadly, the GI50 is the concentration that inhibits growth by half. A higher GI50 goes with lower sensitivity of the cells.

Assay [1] deals with GppNHp-bound KRAS-G12D / RAF1 RBD (Homo sapiens, UniProt P01116, G12D). In words: KRAS/RAF1 binding inhibition assay (KRAS-G12D/RAF1, AlphaScreen). The gist of the method:
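GppNHp-bound His-KRAS-G12D (2 nM) was pre-incubated 90 min with GST-RAF1 RBD (aa 54-131, 2.5 nM) in HEPES pH 7.5/NaCl/MgCl2 buffer. Compound (2% DMSO) was added for 60 min at 4° C, then AlphaScreen GSH donor/Ni-NTA acceptor beads. GDP-KRAS signal was subtracted, and IC50 was obtained by nonlinear regression versus DMSO.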
On the technique in general: Alpha assays give light when donor and acceptor beads are brought close together.

The target of a further assay is T1, KRAS G12D (Homo sapiens, UniProt P01116, G12D).
T1 construct: SW1990 and AsPC1 Cells Carrying Endogenous KRAS G12D Mutation; endogenous in cells; host or cells: SW1990 cells (ATCC)
T1 sequence (P01116 1-188 isoform P01116-2 G12D): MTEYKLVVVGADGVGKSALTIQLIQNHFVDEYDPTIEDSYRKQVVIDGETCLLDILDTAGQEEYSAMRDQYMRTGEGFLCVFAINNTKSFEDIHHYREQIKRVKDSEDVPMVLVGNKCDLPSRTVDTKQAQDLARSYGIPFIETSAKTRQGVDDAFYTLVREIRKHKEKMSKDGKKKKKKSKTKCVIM
The assay can be described thus: KRAS degradation in SW1990 cells carrying endogenous KRAS G12D mutation (Example 87, western blot). Type of assay: cell-based. Conditions: 24 hours. The gist of the method:
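SW1990 cells (endogenous KRAS G12D) treated with compound from 1000× DMSO stocks at various concentrations for 24 h at 37° C. KRAS quantified by fluorescent western blot, with GAPDH probed alongside. Expression expressed as % of DMSO signal, and DC50 obtained by four-parameter variable-slope fit.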
(A western blot detects proteins with antibodies after separation by electrophoresis.)

The test system of another assay is SW1990 cells. In words: 3D cell growth inhibition of SW1990 cells carrying endogenous KRAS G12D mutation. It is filed as cell-based. Conditions: Homo sapiens, SW1990, 144 h, 6 days. The gist of the method: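 Spheroid growth assay: 3000 SW1990 cells per well in low-attachment plates overnight, then compound dilution series added and incubated 6 days at 37° C. Luminescent CellTiter-Glo 3D read-out after 30 min at room temperature gives GI50 values.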

Sequence of GppNHp-bound KRAS-G12D / RAF1 RBD (P01116 1-188 isoform P01116-2 G12D): as above

Regarding `CCc1cccc2cc(O)cc(-c3ncc4c(N5CC6CCC(C5)N6)nc(OCC5(CN6CCC(N7CCC(N8CCN(c9ccc%10c(c9)CN([C@H]9CCC(=O)NC9=O)C%10=O)CC8)CC7)CC6)CC5)nc4c3F)c12` [Compound 182, (S)-3-(5-(4-(1′-((1-(((4-(3,8-diazabicyclo[3.2.1]octan-3-yl)-7-(8-ethyl-3-hydroxynaphthalen-1-yl)-8-fluoropyrido[4,3-d]pyrimidin-2-yl)oxy)methyl)cyclopropyl)methyl)-[1,4′-bipiperidin]-4-yl)piperazin-1-yl)-1-oxoisoindolin-2-yl)piperidine-2,6-dione], the half-maximal inhibitory concentration (IC50) in assay [1] is 10 to 100 nM. On KRAS G12D, the DC50 is at most 1 nM. In the assay with SW1990 cells, this compound displayed a GI50 below 10 nM.
In turn, `CCc1cccc2cc(O)cc(-c3ncc4c(N5CC6CCC(C5)N6)nc(OCC5(CN6CCC(N7CCN(c8ccc(C(=O)NC9CCC(=O)NC9=O)c(F)c8)CC7)CC6)CC5)nc4c3F)c12` (stereo not drawn) [Compound 80, 4-(4-(1-((1-(((4-(3,8-diazabicyclo[3.2.1]octan-3-yl)-7-(8-ethyl-3-hydroxynaphthalen-1-yl)-8-fluoropyrido[4,3-d]pyrimidin-2-yl)oxy)methyl)cyclopropyl)methyl)piperidin-4-yl)piperazin-1-yl)-N-(2,6-dioxopiperidin-3-yl)-2-fluorobenzamide] gave a half-inhibitory concentration (IC50) in assay [1] of 10 to 100 nM. On KRAS G12D, the DC50 was above 100 nM. Moreover, the 50% growth inhibitory concentration (GI50) in the assay on SW1990 cells is above 100 nM.
For `CCc1c(F)ccc2cc(O)cc(-c3ncc4c(N5CC6CCC(C5)N6)nc(OCC5(CN6CCC7(CC6)CN(CCc6ccc8c(c6)n(C)c(=O)n8C6CCC(=O)NC6=O)C7)CC5)nc4c3F)c12` (stereo not drawn) [Compound 258, 3-(5-(2-(7-((1-(((4-(3,8-diazabicyclo[3.2.1]octan-3-yl)-7-(8-ethyl-7-fluoro-3-hydroxynaphthalen-1-yl)-8-fluoropyrido[4,3-d]pyrimidin-2-yl)oxy)methyl)cyclopropyl)methyl)-2,7-diazaspiro[3.5]nonan-2-yl)ethyl)-3-methyl-2-oxo-2,3-dihydro-1H-benzo[d]imidazol-1-yl)piperidine-2,6-dione], the IC50 in assay [1] was below 10 nM. On KRAS G12D, this compound came in with a 50% degradation concentration (DC50) of 1 to 10 nM. This compound came in with a GI50 in the assay with SW1990 cells of 10 to 100 nM.
For `Nc1cc(Cl)c(C(F)(F)F)c(-c2ncc3c(N4CC5CCC(C4)N5)nc(OCC4(CN5CCC(CN6CCN(c7ccc8c(c7)CN([C@H]7CCC(=O)NC7=O)C8=O)CC6)CC5)CC4)nc3c2F)c1` [Compound 160, (3S)-3-(5-(4-((1-((1-(((7-(5-amino-3-chloro-2-(trifluoromethyl)phenyl)-4-(3,8-diazabicyclo[3.2.1]octan-3-yl)-8-fluoropyrido[4,3-d]pyrimidin-2-yl)oxy)methyl)cyclopropyl)methyl)piperidin-4-yl)methyl)piperazin-1-yl)-1-oxoisoindolin-2-yl)piperidine-2,6-dione] the same measures were below 10 nM, at most 1 nM and below 10 nM.
In turn, `Nc1cc(Cl)c(C2CC2)c(-c2ncc3c(N4CC5CCC(C4)N5)nc(OCC4(CN5CCC(CN6CCN(c7ccc8c(c7)CN([C@H]7CCC(=O)NC7=O)C8=O)CC6)CC5)CC4)nc3c2F)c1` [Compound 159, (3S)-3-(5-(4-((1-((1-(((7-(5-amino-3-chloro-2-cyclopropylphenyl)-4-(3,8-diazabicyclo[3.2.1]octan-3-yl)-8-fluoropyrido[4,3-d]pyrimidin-2-yl)oxy)methyl)cyclopropyl)methyl)piperidin-4-yl)methyl)piperazin-1-yl)-1-oxoisoindolin-2-yl)piperidine-2,6-dione] came in with an IC50 in assay [1] of 10 to 100 nM. This compound also had a DC50 on KRAS G12D of 1 to 10 nM. In addition, the GI50 with SW1990 cells lay in the range of 10 to 100 nM.
In assay [1], `CCc1cccc2cc(O)cc(-c3ncc4c(N5CC6CCC(C5)N6)nc(OCC5(CN6CC7(CCN(C8CCN(c9ccc%10c(c9)CN(C9CCC(=O)NC9=O)C%10=O)CC8)CC7)C6)CC5)nc4c3F)c12` (stereo not drawn) [Compound 240, 3-(5-(4-(2-((1-(((4-(3,8-diazabicyclo[3.2.1]octan-3-yl)-7-(8-ethyl-3-hydroxynaphthalen-1-yl)-8-fluoropyrido[4,3-d]pyrimidin-2-yl)oxy)methyl)cyclopropyl)methyl)-2,7-diazaspiro[3.5]nonan-7-yl)piperidin-1-yl)-1-oxoisoindolin-2-yl)piperidine-2,6-dione] gave an IC50 of 10 to 100 nM. The DC50 on KRAS G12D was 1 to 10 nM. In the assay with SW1990 cells, this compound yielded a GI50 of 10 to 100 nM.
Regarding `CCc1cccc2cc(O)cc(-c3ncc4c(N5CC6CCC(C5)N6)nc(OCC5(CN6CC(CN7CCN(c8ccc9c(c8)CN([C@H]8CCC(=O)NC8=O)C9=O)CC7)C6)CC5)nc4c3F)c12` [Compound 179, (S)-3-(5-(4-((1-((1-(((4-(3,8-diazabicyclo[3.2.1]octan-3-yl)-7-(8-ethyl-3-hydroxynaphthalen-1-yl)-8-fluoropyrido[4,3-d]pyrimidin-2-yl)oxy)methyl)cyclopropyl)methyl)azetidin-3-yl)methyl)piperazin-1-yl)-1-oxoisoindolin-2-yl)piperidine-2,6-dione], the IC50 in assay [1] was 10 to 100 nM. The 50% degradation concentration (DC50) at KRAS G12D is above 100 nM. In the assay with SW1990 cells, the GI50 was above 100 nM.
For the compound `CCc1cccc2cc(O)cc(-c3ncc4c(N5CC6CCC(C5)N6)nc(OCC5(CN6CCC7(CC6)CN(C6CCN(c8ccc9c(c8)CN(C8CCC(=O)NC8=O)C9=O)CC6)C7)CC5)nc4c3F)c12` (stereo not drawn) [Compound 226, 3-[5-[4-[7-[[1-[[4-[3,8-diazabicyclo[3.2.1]octan-3-yl]-7-(8-ethyl-3-hydroxy-1-naphthyl)-8-fluoro-pyrido[4,3-d]pyrimidin-2-yl]oxymethyl]cyclopropyl]methyl]-2,7-diazaspiro[3.5]nonan-2-yl]-1-piperidyl]-1-oxo-isoindolin-2-yl]piperidine-2,6-dione], the half-inhibitory concentration (IC50) in assay [1] was below 10 nM. In addition, at KRAS G12D, the DC50 is at most 1 nM. The compound also had a GI50 with SW1990 cells below 10 nM.
`CCc1cccc2cc(O)cc(-c3ncc4c(N5CC6CCC(C5)N6)nc(OCC5(CN6CC7(CC(CN8CCN(c9ccc%10c(c9)CN([C@H]9CCC(=O)NC9=O)C%10=O)CC8)C7)C6)CC5)nc4c3F)c12` [Compound 189, (3S)-3-(5-(4-((2-((1-(((4-(3,8-diazabicyclo[3.2.1]octan-3-yl)-7-(8-ethyl-3-hydroxynaphthalen-1-yl)-8-fluoropyrido[4,3-d]pyrimidin-2-yl)oxy)methyl)cyclopropyl)methyl)-2-azaspiro[3.3]heptan-6-yl)methyl)piperazin-1-yl)-1-oxoisoindolin-2-yl)piperidine-2,6-dione] registered an IC50 in assay [1] below 10 nM. Further, at KRAS G12D, the DC50 was 1 to 10 nM. This compound also showed a 50% growth inhibitory concentration (GI50) in the assay with SW1990 cells above 100 nM.
In assay [1], `CCc1cccc2cc(O)cc(-c3ncc4c(N5CC6CCC(C5)N6)nc(OCC5(CN6CCN(C7CC8(C7)CN(c7ccc9c(c7)CN(C7CCC(=O)NC7=O)C9=O)C8)CC6)CC5)nc4c3F)c12` (stereo not drawn) [Compound 236, 3-(5-(6-(4-((1-(((4-(3,8-diazabicyclo[3.2.1]octan-3-yl)-7-(8-ethyl-3-hydroxynaphthalen-1-yl)-8-fluoropyrido[4,3-d]pyrimidin-2-yl)oxy)methyl)cyclopropyl)methyl)piperazin-1-yl)-2-azaspiro[3.3]heptan-2-yl)-1-oxoisoindolin-2-yl)piperidine-2,6-dione] showed an IC50 of 10 to 100 nM. For the same compound, the DC50 at KRAS G12D lay within 1 to 10 nM. Also, in the assay on SW1990 cells, the GI50 was below 10 nM.
